# Measurements from article PMC6273692, “Binding Mode and Selectivity of Steroids towards Glucose-6-phosphate Dehydrogenase from the Pathogen Trypanosoma cruzi” (Molecules, 2016).
# Like-named read-outs stand apart in the source and are kept apart here.
# How the values were obtained:
# [1] = test system: human G6PDH; settings: cited from earlier work; for IC50: read-out: IC50 (anti-human G6PDH activity); for increase of inhibition of human G6PDH compared to the parental scaffold (EA): vs EA
# [2] = test system: WT TcG6PDH; experiment: Kinetic assay of WT TcG6PDH with substrates
# Protocol: G6PDH activity was determined at ~25 °C by monitoring NADPH (ε340 = 6220 M^−1·cm^−1) formation at 340 nm. All assays were performed in buffer B (50 mM Tris pH 7.5, 5 mM MgCl2) in a final reaction volume of 150 µL and started by addition of glucose-6-phosphate (G6P). For WT TcG6PDH, the Michaelis’ constants (KM) and the maximum initial velocity (Vmax) were determined varying reciprocally the substrate (10, 50, 200, 1000 and 5000 µM G6P) and coenzyme (5, 10, 50, 250 and 625 µM NADP^+) concentrations. For the mutants, the kinetic characterization was performed at a fixed saturating concentration of the corresponding co-substrate (i.e., 6 mM G6P and 700 µM NADP^+) and varying concentrations of the substrate (25, 50, 70, 100, 250, 350, 500 and 700 µM NADP^+, and 0.005, 0.025, 0.05, 0.25, 0.65, 1, 2.5 and 5 mM G6P). […] The first 30 s of the reaction were used to calculate initial velocities that were normalized by the corresponding enzyme concentration in the assay. All measurements were performed in triplicate using a Cary 50 Bio spectrophotometer (Agilent Technologies, Santa Clara, CA, USA). The initial rates were determined with the Origin Pro 8.0 software (OriginLab Corporation, Northampton, MA, USA), and the apparent kinetic constants were calculated by nonlinear regression using the GraphPad Prism 5.0 software (GraphPad Inc., San Diego, CA, USA). The data were fitted to the Cleland or Michaelis-Menten equation to obtain the corresponding kinetic parameters.
# [3] = target: TcG6PDH wildtype (Trypanosoma cruzi, UniProt Q1WBU6); experiment: Inhibitor assay with wildtype TcG6PDH (NADPH formation at 340 nm); assay type: biochemical; settings: for activity at 30 µM: read-out: G6PDH Activity [%] ± SD at 30 µM Compound; for inhibition at 30 µM: read-out: inhibition at 30 μM compound; for increase of potency towards the parasite enzyme compared to the parental scaffold (EA): vs EA
# [4] = test system: African trypanosomes expressing an ectopic copy of L. mexicana G6PDH; settings: endogenous G6PDH deficient; cited from earlier work
# [5] = target: T. cruzi G6PDH (TcG6PDH); settings: cited from earlier work
# [6] = target: G6PDH from T. brucei; settings: cited from earlier work
# Chain of TcG6PDH wildtype (Q1WBU6 entry or part of it): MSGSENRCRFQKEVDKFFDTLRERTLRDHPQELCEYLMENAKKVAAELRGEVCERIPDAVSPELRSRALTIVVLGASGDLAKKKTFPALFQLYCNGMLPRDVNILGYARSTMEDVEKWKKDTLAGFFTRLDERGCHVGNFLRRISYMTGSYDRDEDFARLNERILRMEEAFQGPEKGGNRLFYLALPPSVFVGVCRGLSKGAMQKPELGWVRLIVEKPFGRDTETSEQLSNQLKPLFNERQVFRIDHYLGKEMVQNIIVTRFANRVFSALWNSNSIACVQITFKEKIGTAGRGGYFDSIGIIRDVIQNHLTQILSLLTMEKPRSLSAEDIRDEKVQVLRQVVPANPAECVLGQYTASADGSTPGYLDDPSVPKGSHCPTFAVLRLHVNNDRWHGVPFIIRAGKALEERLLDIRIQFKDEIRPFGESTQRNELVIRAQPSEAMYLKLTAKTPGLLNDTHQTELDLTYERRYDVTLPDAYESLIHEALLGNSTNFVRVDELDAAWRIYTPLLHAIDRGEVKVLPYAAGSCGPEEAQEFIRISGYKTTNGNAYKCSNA
smiles,measurement,setting,value
"C[C@]12CC[C@H](O)CC1CCC1C2CC[C@]2(C)C(=O)C(Br)CC12 (stereo partly shown) [Compound 16Br-EA, 16-bromo epiandrosterone, reference compound]",activity against human G6PDH relative to TcG6PDH,[1],almost two orders of magnitude less active
NC(=O)c1ccc[n+]([C@@H]2O[C@H](COP(=O)([O-])OP(=O)(O)OC[C@H]3O[C@@H](n4cnc5c(N)ncnc54)[C@H](OP(=O)(O)O)[C@@H]3O)[C@@H](O)[C@H]2O)c1 [NADP^+],Km,"[2]; read-out: KM NADP^+, apparent, triplicate",16 ± 3 µM
same,kcat,[2]; varying NADP+,52 ± 2 s⁻¹
C[C@]12CC[C@H](NS(N)(=O)=O)CC1CCC1C2CC[C@@]2(C)C1CC[C@@H]2C(=O)CO (stereo partly shown) [Compound 3],activity at 30 µM,[3],30 ± 2%
same,inhibition at 30 µM,[3],60 to 70%
same,IC50,[1],~2000 nM
"C[C@]12CC[C@H](O)C[C@@H]1CC[C@@H]1[C@@H]2CC[C@]2(C)C(=O)CC[C@@H]12 [EA, epiandrosterone, reference compound]",sensitivity of trypanosomes expressing L. mexicana G6PDH,[4],resistant
same,IC50,[3],3000 ± 400 nM
same,activity at 30 µM,[3],12 ± 2%
same,Ki,[5],1000 to 5600 nM
same,Ki,[1],3000 nM
same,Ki,[6],500 nM
C[C@]12CC[C@H](O)CC1CCC1C2CC[C@@]2(C)C1CC[C@@H]2C(=O)CO (stereo partly shown) [Compound 4],activity at 30 µM,[3],43 ± 2%
same,inhibition at 30 µM,[3],60 to 70%
same,IC50,[1],~2000 nM
"C[C@]12CC[C@H](O)CC1=CC[C@@H]1[C@@H]2CC[C@]2(C)C(=O)CC[C@@H]12 [DHEA, dehydroepiandrosterone]",Ki,[5],2600 to 25000 nM
same,Ki,[1],6000 to 9000 nM
same,Ki,[6],1700 nM
"O=C[C@H](O)[C@@H](O)[C@H](O)[C@H](O)COP(=O)(O)O [Compound G6P, glucose-6-phosphate]",Km,"[2]; read-out: KM G6P, apparent, triplicate",77 ± 20 µM
same,kcat,[2]; varying G6P,62 ± 3 s⁻¹
CCNC(=O)N[C@H]1CC[C@@]2(C)C(CCC3C2CC[C@]2(C)C(=O)CCC32)C1 (stereo partly shown) [Compound 1],IC50,[3],1500 nM
same,activity at 30 µM,[3],7 ± 1%
same,increase of potency towards the parasite enzyme compared to the parental scaffold (EA),[3],≤ 2 fold
same,increase of inhibition of human G6PDH compared to the parental scaffold (EA),[1],~ 10 fold
C[C@]12CC[C@H](NS(N)(=O)=O)CC1CCC1C2CC[C@]2(C)C(=O)CCC12 (stereo partly shown) [Compound 2],IC50,[3],2200 nM
same,activity at 30 µM,[3],9 ± 1%
same,increase of potency towards the parasite enzyme compared to the parental scaffold (EA),[3],≤ 2 fold
same,increase of inhibition of human G6PDH compared to the parental scaffold (EA),[1],~ 10 fold
